Laboratory results from patent US20090104145A1, “Mixtures of Anthranilamide Invertebrate Pest Control Agents” (priority 2004, published 2009).

Legend:
Assay in all cases: whole plant or invertebrate
Format in all cases: in vivo
[1] = system: diamondback moth (Plutella xylostella); conditions: for mortality at 10 ppm: rate 10 ppm; for mortality at 0.08 ppm: rate 0.08 ppm; for mortality at 0.4 ppm: rate 0.4 ppm; for mortality at 2 ppm: rate 2 ppm
Method: (§1) The pest control protection afforded by the mixtures or compositions is not limited, however, to these species. The analysis of synergism or antagonism between the mixtures or compositions was determined using Colby's equation. The average % mortality data for the test compounds alone were inserted into the Colby's equation. If the observed average % mortality was higher than “p”, the expected % mortality, the mixture or composition had synergistic effects. If the observed average % mortality was equal to or lower than the expected mortality, the mixture or composition either had no synergistic effect or an antagonistic effect. In these tests, Compound 1 is the compound of Formula 1.
For evaluating control of diamondback moth (Plutella xylostella), cabbage (var. Stonehead) plants were grown in Metromix potting soil in 10-cm pots in aluminum trays to test size (28 days, 3-4 full leaves) the plants were sprayed to the point of runoff using the turntable sprayer as described in Test I. Test compounds were formulated and sprayed on test plants as described for Test I. After drying for 2 hours, the treated leaves were excised and infested with one cabbage looper per cell and covered. The test units were placed on trays and put in a growth chamber at 25° C. and 60% relative humidity for 4 days.

[2] = system: cotton melon aphid (Aphis gossypii Glover)
Method: as §1
(§2) Test compounds were formulated using a solution containing 10% acetone, 90% water and 300 ppm X-77® Spreader Lo-Foam Formula non-ionic surfactant containing alkylarylpolyoxyethylene, free fatty acids, glycols and isopropanol (Loveland Industries, Inc.) to provide the desired concentration in ppm. Formulated test solutions were then applied in 1 mL volumes through a SUJ2 atomizer nozzle with ⅛ JJ custom body (Spraying Systems Co.) positioned 1.27 cm (0.5 inches) above the top of each test unit.
(§3) For evaluating control of cotton melon aphid (Aphis gossypii Glover) through contact and/or systemic means, each test unit consisted of a small open container with a 6- to 7-day-old cotton plant inside. This was pre-infested by placing on a leaf of the test plant 30 to 40 aphids on a piece of leaf excised from a culture plant (cut-leaf method). The larvae moved onto the test plant as the leaf piece desiccated. After pre-infestation, the soil of the test unit was covered with a layer of sand.
(§4) Test compounds were formulated and sprayed as described for Test A. The applications were replicated three times. After spraying of the formulated test compounds, each test unit was allowed to dry for 1 hour and then a black, screened cap was placed on top. The test units were held for 6 days in a growth chamber at 19-21° C. and 50-70% relative humidity.

[3] = system: potato leafhopper (Empoasca fabae Harris); conditions: Compound 1 0 ppm
Method: as §1, §2
For evaluating control of potato leafhopper (Empoasca fabae Harris) through contact and/or systemic means, each test unit consisted of a small open container with a 5- to 6-day-old Longio bean plant (primary leaves emerged) inside. White sand was added to the top of the soil, and one of the primary leaves was excised prior to application. Test compounds were formulated and sprayed with 3 replications as described for Test A. After spraying, the test units were allowed to dry for 1 hour before they were infested with 5 potato leafhoppers (18- to 21-day-old adults). A black, screened cap was placed on the top of each container. The test units were held for 6 days in a growth chamber at 19-21° C. and 50-70% relative humidity.

[4] = system: green peach aphid (Myzus persicae Sulzer)
Method: as §1, §2
as §3, with “green peach” for “cotton melon”, “(Myzus persicae Sulzer)” for “(Aphis gossypii Glover)”, “12-” for “6-”, “15-day-old radish” for “7-day-old cotton”
as §4, with “described in” for “described for”, “Test A,” for “Test A. The applications were”, “test compound,” for “test compounds,”

[5] = system: western flower thrip (Frankliniella occidentalis Pergande)
Method: as §1, §2
For evaluating control of the western flower thrip (Frankliniella occidentalis Pergande) through contact and/or systemic means, each test unit consisted of a small open container with a 5- to 7-day-old bean (var. Soleil) plant inside.
Test solutions were formulated and sprayed with 3 replications as described for Test A. After spraying, the test units were allowed to dry for 1 hour, 22 to 27 adult thrips were added to each unit and then a black, screened cap was placed on top. The test units were held for 7 days at 25° C. and 45-55% relative humidity.

[6] = system: silverleaf whitefly (Bemisia argentifolii Bellows and Perring); conditions: for % mortality (obs): Table 2B, compound alone
Method: as §1
For evaluating control of silverleaf whitefly (Bemisia argentifolii Bellows and Perring) through contact and/or systemic means, each test unit consisted of a small open container with a 12- to 14-day-old cotton plant inside. This was pre-infested by placing test units into cages infested with adult whiteflies so that oviposition on the cotton leaves could occur. The adults were removed from the plants with an air-blast nozzle, and the test units were capped. The test units were then stored 2 to 3 days before spraying.
as §2
The results for all experimental compositions in this test were replicated three times. After spraying of the formulated test composition, each test unit was allowed to dry for 1 hour and the cap removed. The test units were held for 13 days in a growth chamber at 28° C. and 50-70% relative humidity.

[7] = Plutella xylostella, in Brassica oleracea, read-out: % mortality (obs)
[8] = Plutella xylostella, in Brassica oleracea, rate 100 ppm, read-out: % mortality (obs)
[9] = Plutella xylostella, in Brassica oleracea, rate 1000 ppm, read-out: % mortality (obs)
[10] = Plutella xylostella, in Brassica oleracea, rate 1 ppm, read-out: % mortality (obs)

Molecule: pyridaben
- % mortality ([1]; rate 100): 100%
- % mortality ([1]; rate 150): 80%
- % mortality ([1]; rate 200): 100%

Molecule: CCOC(=O)NCCOc1ccc(Oc2ccccc2)cc1 [Fenoxycarb, fenoxycarb]
- mortality at 10 ppm [1, 7]: 90%
- mortality at 100 ppm [1, 8]: 90%
- mortality at 1000 ppm [1, 9]: 90%

Molecule: CC1(C)[C@H](C(=O)O[C@H](C#N)c2cccc(Oc3ccccc3)c2)[C@@H]1C=C(Br)Br [Deltamethrin, deltamethrin]
- mortality at 0.1 ppm ([1]; Plutella xylostella, in Brassica oleracea, rate 0.1 ppm, read-out: % mortality (obs)): 90%
- mortality at 0.3 ppm ([1]; Plutella xylostella, in Brassica oleracea, rate 0.3 ppm, read-out: % mortality (obs)): 90%
- mortality at 1 ppm [1, 10]: 90%

Molecule: CCN(Cc1ccc(Cl)nc1)/C(=C/[N+](=O)[O-])NC [Nitenpyram, nitenpyram]
- % mortality (obs) ([1]; rate 30 ppm): 90%
- % mortality (obs) ([1]; rate 150 ppm): 90%

Molecule: CCOP(=S)(OCC)Oc1nc(Cl)c(Cl)cc1Cl [Chlorpyrifos, chlorpyrifos]
- mortality at 10 ppm [1, 7]: 80%
- mortality at 100 ppm [1, 8]: 40%
- mortality at 1000 ppm [1, 9]: 50%

Molecule: Cc1ccc(/N=C/N(C)/C=N/c2ccc(C)cc2C)c(C)c1 [Amitraz, amitraz]
- % mortality ([1]; rate 10): 70%
- % mortality ([1]; rate 100): 20%
- % mortality ([1]; rate 1000): 50%

Molecule: N#CCNC(=O)c1cnccc1C(F)(F)F [Flonicamid, flonicamid]
- % mortality ([1]; rate 1): 0%
- % mortality ([1]; rate 15): 60%
- % mortality ([1]; rate 1000): 30%

Molecule: COc1cccc(C(=O)NN(C(=O)c2cc(C)cc(C)c2)C(C)(C)C)c1C [Methoxyfenozide, methoxyfenozide]
- mortality at 0.08 ppm [1, 7]: 90%
- mortality at 0.4 ppm [1, 7]: 90%
- mortality at 2 ppm [1, 7]: 90%
- mortality at 5 ppm ([2]; Aphis gossypii, rate 5 ppm, read-out: % mortality (obs)): 22%
- mortality at 50 ppm ([2]; Aphis gossypii, rate 50 ppm, read-out: % mortality (obs)): 20%
- mortality at 500 ppm ([2]; Aphis gossypii, rate 500 ppm, read-out: % mortality (obs)): 26%

Molecule: CC(C)N1C(=O)N(c2ccccc2)CS/C1=N\C(C)(C)C [Buprofezin, buprofezin]
- mortality at 10 ppm [1, 7]: 30%
- mortality at 1000 ppm [1, 9]: 60%

Molecule: O=[N+]([O-])NC1=NCCN1Cc1ccc(Cl)nc1 [Imidacloprid, imidacloprid]
- % Mortality (observed) ([3]; Imidacloprid 0.4 ppm): 20%
- % Mortality (observed) ([3]; Imidacloprid 1.4 ppm): 0%
- % Mortality (observed) ([3]; Imidacloprid 4.6 ppm): 20%
- mortality at 0.3 ppm ([4]; Myzus persicae, in Raphanus sativus, read-out: % Mortality (observed)): 50%

Molecule: dieldrin
- % mortality ([1]; rate 2): 90%
- % mortality ([1]; rate 2.5): 100%
- % mortality ([1]; rate 3): 100%

Molecule: O=C(NC(=O)c1c(F)cccc1F)Nc1cc(Cl)c(OC(F)(F)C(F)F)c(Cl)c1 [Hexaflumuron, hexaflumuron]
- mortality at 0.5 ppm ([1]; Plutella xylostella, in Brassica oleracea, rate 0.5 ppm, read-out: % mortality (obs)): 70%
- mortality at 1 ppm [1, 10]: 30%
- mortality at 2 ppm [1, 7]: 70%
- mortality at 10 ppm ([5]; Frankliniella occidentalis, rate 10 ppm, read-out: % mortality (obs)): 20%
- mortality at 3000 ppm ([5]; Frankliniella occidentalis, rate 3000 ppm, read-out: % mortality (obs)): 60%

Molecule: CS/C(C)=N\OC(=O)N(C)SN(C)C(=O)O/N=C(\C)SC [Thiodicarb, thiodicarb]
- % mortality (obs) ([1]; rate 100 ppm): 90%
- % mortality (obs) ([1]; rate 1000 ppm): 90%
- % mortality (obs) ([1]; rate 3000 ppm): 90%

Molecule: O=C(NC(=O)c1c(F)cccc1F)Nc1cc(Cl)c(OC(F)(F)C(F)C(F)(F)F)cc1Cl (stereo not drawn) [Lufenuron, lufenuron]
- mortality at 0.08 ppm [1, 7]: 80%
- mortality at 0.4 ppm [1, 7]: 80%
- mortality at 2 ppm [1, 7]: 90%

Molecule: CNC(=O)O/N=C(\SC)C(=O)N(C)C [Oxamyl, oxamyl]
- % mortality (obs) ([1]; rate 1 ppm): 60%

Molecule: CCc1ccc(C(=O)NN(C(=O)c2cc(C)cc(C)c2)C(C)(C)C)cc1 [Tebufenozide, tebufenozide]
- mortality at 150 ppm ([1]; Plutella xylostella, in Brassica oleracea, rate 150 ppm, read-out: % mortality (obs)): 90%
- mortality at 200 ppm ([1]; Plutella xylostella, in Brassica oleracea, rate 200 ppm, read-out: % mortality (obs)): 90%
- mortality at 300 ppm ([1]; Plutella xylostella, in Brassica oleracea, rate 300 ppm, read-out: % mortality (obs)): 90%

Molecule: CNC(=O)c1cc(C#N)cc(C)c1NC(=O)c1cc(Br)nn1-c1ncccc1Cl [Compund 1]
- % mortality (obs) ([6]; rate 7 ppm): 30%
- % mortality (obs) ([6]; rate 9 ppm): 53%
- % mortality (obs) ([6]; rate 12 ppm): 71%

Molecule: thiamethoxam
- % mortality ([1]; rate 30): 90%
- % mortality ([1]; rate 40): 100%
- % mortality ([1]; rate 50): 100%
- % Mortality (observed) ([5]; Thiamethoxam 1 ppm alone): 33%
- % Mortality (observed) ([5]; Thiamethoxam 5.5 ppm alone): 43%
- % Mortality (observed) ([5]; Thiamethoxam 29 ppm alone): 43%
- % Mortality (observed) ([2]; Thiamethoxam 0.5 ppm): 22%
- % Mortality (observed) ([2]; Thiamethoxam 0.8 ppm): 83%
- % Mortality (observed) ([2]; Thiamethoxam 1 ppm): 91%
- % Mortality (observed) ([4]; 0.2 ppm): 23%
- % Mortality (observed) ([4]; 0.3 ppm): 23%
- % Mortality (observed) ([4]; 0.5 ppm): 93%
- % Mortality (observed) ([6]; Thiamethoxam 15 ppm alone): 53%
- % Mortality (observed) ([6]; Thiamethoxam 26 ppm alone): 65%

Molecule: Nc1nc(N)nc(NC2CC2)n1 [Cyromazine, cyromazine]
- mortality at 20 ppm ([1]; Plutella xylostella, in Brassica oleracea, rate 20 ppm, read-out: % mortality (obs)): 60%
- mortality at 40 ppm ([1]; Plutella xylostella, in Brassica oleracea, rate 40 ppm, read-out: % mortality (obs)): 90%
- mortality at 60 ppm ([1]; Plutella xylostella, in Brassica oleracea, rate 60 ppm, read-out: % mortality (obs)): 80%

Molecule: spinosad
- % mortality ([1]; rate 10): 100%
- % mortality ([1]; rate 100): 90%
- % mortality ([1]; rate 1000): 100%

Molecule: CC1(C)CNC(=NN=C(/C=C/c2ccc(C(F)(F)F)cc2)/C=C/c2ccc(C(F)(F)F)cc2)NC1 [Hydramethylnon, hydramethylnon]
- mortality at 0.01 ppm ([1]; Plutella xylostella, in Brassica oleracea, rate 0.01 ppm, read-out: % mortality (obs)): 70%
- mortality at 0.05 ppm ([1]; Plutella xylostella, in Brassica oleracea, rate 0.05 ppm, read-out: % mortality (obs)): 50%
- mortality at 0.2 ppm ([1]; Plutella xylostella, in Brassica oleracea, rate 0.2 ppm, read-out: % mortality (obs)): 60%

Molecule: CNC(=O)ON=C(C)SC [Methomyl, methomyl]
- % mortality ([1]; rate 30): 80%
- % mortality ([1]; rate 40): 90%
- % mortality ([1]; rate 50): 80%

Molecule: COC(=O)N(C(=O)N1CO[C@@]2(C(=O)OC)Cc3cc(Cl)ccc3C2=N1)c1ccc(OC(F)(F)F)cc1 [Indoxacarb, indoxacarb]
- % mortality (obs) ([1]; rate 0.02 ppm): 80%
- % mortality (obs) ([1]; rate 0.05 ppm): 40%
